Here are results for 39 compounds from paper PMC9585589 (ACS Chemical Neuroscience, 2022).

The target in assay [1] is human CB1 receptor (Homo sapiens, UniProt P21554). Description: biochemical. Format: binding. Also noted: purchased Merck HTS019M; host or cells: Chem-1 cells. From the text: Compounds selected for the in vitro binding assay from the first iteration of VS were purchased via MolPort, SIA, Riga, Latvia and Biopurify Phytochemicals Ltd., Chengdu, China. Compounds from the second iteration were purchased from MolPort, SIA, Riga, Latvia and Chemspace, SIA, Riga, Latvia (Supporting Information S3). […] Membranes from cells overexpressing the human CB1 receptor (ChemiScreen CB1 Cannabinoid Receptor Membrane Preparation, cat. no. HTS019M) as well as MgCl2, CaCl2, Trizma Base, NaCl, polyethylenimine (PEI) and dimethyl sulfoxide (DMSO) were purchased from Merck (USA). Bovine serum albumin (BSA) was obtained from Pol-Aura (Poland).
human CB1 receptor, sequence (P21554 whole entry): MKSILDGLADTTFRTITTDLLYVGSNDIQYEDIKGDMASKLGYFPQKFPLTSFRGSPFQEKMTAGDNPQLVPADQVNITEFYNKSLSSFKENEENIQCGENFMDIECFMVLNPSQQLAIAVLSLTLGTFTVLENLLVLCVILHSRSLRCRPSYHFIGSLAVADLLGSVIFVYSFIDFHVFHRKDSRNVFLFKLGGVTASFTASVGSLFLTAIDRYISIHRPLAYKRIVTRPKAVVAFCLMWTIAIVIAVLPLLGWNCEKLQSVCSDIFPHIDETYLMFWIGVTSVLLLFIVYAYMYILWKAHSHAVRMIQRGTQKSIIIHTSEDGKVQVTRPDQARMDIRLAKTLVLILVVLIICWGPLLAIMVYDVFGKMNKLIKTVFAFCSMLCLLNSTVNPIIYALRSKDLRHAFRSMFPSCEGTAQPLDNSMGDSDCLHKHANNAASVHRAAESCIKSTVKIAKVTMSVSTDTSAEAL
Compounds were dissolved in 50% DMSO and added to the reaction mixture at 10 concentrations equally spaced on a log scale (10^–10 to 10^–4.5 M). The final DMSO concentration was 5%. […] The reaction mixture (500 μL) was incubated for 1.5 h at 30°C . Before harvesting, Whatman GF/B Filter Paper (Brandel, USA) was presoaked with 0.33% PEI buffer for 30 min. and then washed with 2 ml of 50 mM Tris-HCl buffer (pH = 7.4) and 0.5% BSA to minimize non-specific binding. The reaction was terminated by depositing the samples onto GF/B filter paper with the Brandel M-24 Cell Harvester (Brandel, USA). Samples were then rapidly washed 3 times with 2 ml of ice-cold wash buffer (50 mM Tris-HCl pH 7.4, 500 mM NaCl) to separate the bound radioligand from free. Filters were then air-dried for 1 h at 60°C . After drying, filter discs were placed on a flexible 24-well plate and 500 μL of EcoScint-20 scintillant was added to each well. Plates were counted (2 min. per well) in a Trilux MicroBeta^2 2450 scintillation counter (Perkin Elmer, USA). Data were analyzed with GraphPad Prism 5.0 software.[89]

Assay [2] concerns the target human CB1. The conditions noted are these: one per compound, cited from earlier work.
The mark [3] stands for this setting: [3H]CP-55,940 displacement, membranes of Chem-1 cells expressing human CB1.
[4] abbreviates: CB1 agonists, Table S8, ref SI (1)-(19).
[5] abbreviates: [3H]CP-55,940 displacement, membranes of Chem-1 cells expressing human CB1, read-out: pKi ± SEM (converted).

Molecules are shown by their SMILES. Where two headings read alike, the source gives them in different places.

Consider `COc1ccc(-c2cc(=O)c3c(O)cc4c(c3o2)C(c2cccc(Cl)c2F)CC(=O)O4)cc1O` (racemic) [Compound 31], for which the “Ki (μM, 95% CI)” value in assay [1] was “no activity”. In addition, the “pKi ± SEM” value in assay [1] (setting [3]) was “no activity”. `CC(C)(O)[C@@H]1CC[C@](C)([C@H]2[C@@H](O)C[C@@]3(C)[C@@H]4C[C@H](O)[C@H]5C(C)(C)[C@@H](O)CC[C@@]56C[C@@]46CC[C@]23C)O1` [Compound 14, Cyclogalegenol]: the “pKi ± SEM” value in assay [1] (setting [3]) was found to be 3.76 ± 0.20. Further, the Ki in assay [1] (read-out: Ki (μM, 95% CI)) came out at 175 µM. Consider `CCCCC/C=C\C/C=C\C/C=C\C/C=C\CCCC(=O)NCCO` [Anandamide], for which the Ki in assay [2] (setting [4]) is 0.07 µM.

Take `CCCCCn1cc(C(=O)C2C(C)(C)C2(C)C)c2ccccc21` [UR-144]: the Ki in assay [2] (setting [4]) is 0.029 µM. `Cc1c(-c2cn(-c3ccccc3)cn2)nn(-c2ccccc2Cl)c1-c1ccc(Cl)cc1` [CHEMBL568221]: the Ki in assay [2] (CB1 antagonists/inverse agonists, Table S9, ref SI (20)-(38)) was 0.0038 µM. As to `N#Cc1c(Oc2cccc(OS(=O)(=O)CCCC(F)(F)F)c2)cccc1C(F)(F)F` [BAY 59-3074], in assay [2] (setting [4]), the Ki was 0.0483 µM. As to `O=C(NCCc1ccc(F)cc1)c1cc2c([nH]c3ccccc32)c(-c2ccc(F)cc2)n1` [Compound 23], the “Ki (μM, 95% CI)” value in assay [1] was “no activity”. In addition, the “pKi ± SEM” value in assay [1] (setting [3]) is listed as “no activity”.

On to `COc1ccc(-c2nc3ccc(C(=O)NCc4ccc(Cl)cc4)cc3nc2-c2ccc(OC)cc2)cc1` [Compound 37], for which the “Ki (μM, 95% CI)” value in assay [1] was “no activity”. The “pKi ± SEM” value in assay [1] (setting [3]) is given as “no activity”. For the compound `Cc1ccc(S(=O)(=O)NC(Cc2c[nH]c3ccccc23)C(=O)Oc2ccc3c4c(c(=O)oc3c2)CCC4)cc1` (racemic) [Compound 36], the “pKi ± SEM” value in assay [1] (setting [3]) turned out to be 4.39 ± 0.09. In assay [1] (read-out: Ki (μM, 95% CI)), the Ki is 41 µM. As for `CCCCNC(=O)[C@@H]1CN(C(=O)c2cccc(OC)c2)C[C@H]1c1ccc(OC)cc1OC` (racemic) [Compound 42], the “Ki (μM, 95% CI)” value in assay [1] was “no activity”. In assay [1] (setting [3]), the “pKi ± SEM” value is on record as “no activity”. Take `COc1cc2c(=O)c3c(O)c([C@@H]4O[C@H](CO[C@@H]5OC[C@](O)(CO)[C@H]5O)[C@@H](O)[C@H](O)[C@H]4O)c(O)cc3oc2cc1O` [Compound 18, Polygalaxanthone III]: in assay [1], the “Ki (μM, 95% CI)” value was “no activity”. Further, the “pKi ± SEM” value in assay [1] (setting [3]) is reported as “no activity”. Consider `Cc1ccc(COc2ccc3c(C)c(CC(=O)N4CCC5(O)CCCCC5C4)c(=O)oc3c2C)cc1` (racemic) [Compound 27], for which the “Ki (μM, 95% CI)” value in assay [1] is “insoluble”. Moreover, the “pKi ± SEM” value in assay [1] (setting [3]) was “insoluble”.

In the case of `CCCS(=O)(=O)Nc1ccc(F)c(C(=O)c2c[nH]c3ncc(-c4ccc(Cl)cc4)cc23)c1F` [Compound 29, Vemurafenib], the “Ki (μM, 95% CI)” value in assay [1] is given as “no activity”. The “pKi ± SEM” value in assay [1] (setting [3]) is “no activity”. The compound `COc1ccccc1Oc1c(NS(=O)(=O)c2ccc(C(C)(C)C)cc2)nc(-c2ncccn2)nc1OCCO` [Compound 1, Bosentan] displayed a Ki in assay [1] (Ki (μM, 95% CI)) of 259 µM.

`COc1cc(C2Oc3cc([C@H]4Oc5cc(O)cc(O)c5C(=O)[C@@H]4O)ccc3OC2CO)ccc1O` (stereo partly drawn) [Compound 20, Silybin] registered a Ki in assay [1] (Ki (μM, 95% CI)) of 165 µM. Regarding `Cc1c(O[C@H](C)C(=O)NC[C@@H](O)c2ccccc2)ccc2c(-c3ccccc3)cc(=O)oc12` (racemic) [Compound 25], in assay [1] (setting [3]), the “pKi ± SEM” value was 4.86 ± 0.09. Moreover, in assay [1] (read-out: Ki (μM, 95% CI)), the Ki turned out to be 13.9 µM. For `O=C(NC[C@H]1CN(c2ccc(N3CCOCC3=O)cc2)C(=O)O1)c1ccc(Cl)s1` [Compound 7, Rivaroxaban], the “Ki (μM, 95% CI)” value in assay [1] is listed as “no activity”. Further, the “pKi ± SEM” value in assay [1] (setting [3]) is “no activity”.

Compound `O=C(O[C@@H]1O[C@@H]2COC(=O)c3cc(O)c(O)c(O)c3-c3c(cc(O)c(O)c3O)C(=O)O[C@H]([C@H]1O)[C@@H]2O)c1cc(O)c(O)c(O)c1` [Compound 13, Corilagin] registered a Ki in assay [1] (Ki (μM, 95% CI)) of 48 µM.

On to `Cc1nc2c([nH]1)-c1ccccc1N(C(=O)c1ccc(NC(=O)c3ccccc3-c3ccccc3)cc1)CC2` [Compound 45, Conivaptan], for which the “Ki (μM, 95% CI)” value in assay [1] was “no activity”. The “pKi ± SEM” value in assay [1] (setting [3]) is “no activity”. Turning to `C[C@@]12C[C@@]3(O)O[C@@H](O1)[C@]1(COC(=O)c4ccccc4)[C@H]3C[C@@]12O[C@@H]1O[C@H](COC(=O)c2ccccc2)[C@@H](O)[C@H](O)[C@H]1O` [Compound 12, Benzoylpaeoniflorin], the Ki in assay [1] (Ki (μM, 95% CI)) amounted to 179 µM.

Regarding `O=C1[C@@H]2[C@H]3CC[C@H](C3)[C@@H]2C(=O)N1C[C@@H]1CCCC[C@H]1CN1CCN(c2nsc3ccccc23)CC1` [Compound 4, Lurasidone], the Ki in assay [1] (Ki (μM, 95% CI)) was found to be 39.8 µM. In the case of `COc1cc(C(C)=O)ccc1OCCCN1CCC(c2noc3cc(F)ccc23)CC1` [Compound 3, Iloperidone], the Ki in assay [1] (Ki (μM, 95% CI)) was 87.9 µM; in assay [1] (setting [5]), 89.1 µM.

Regarding `COc1ccc(CCNC(=O)c2[nH]c3ccccc3c2NC(=O)c2cccc(C)c2)cc1OC` [Compound 28], in assay [1], the “Ki (μM, 95% CI)” value is “no activity”. The “pKi ± SEM” value in assay [1] (setting [3]) is given as “no activity”. On to `CC(C)COc1ccc(CNC(=O)N(Cc2ccc(F)cc2)C2CCN(C)CC2)cc1` [Compound 6, Pimavanserin], for which the Ki in assay [1] (setting [5]) is 33.9 µM. Take `OCC1=C[C@@H](O)[C@]2(O[C@@H]3O[C@H](CO)[C@@H](O)[C@H](O)[C@H]3O[C@@H]3O[C@H](CO)[C@@H](O)[C@H](O)[C@H]3O)C=CO[C@@H](O[C@@H]3O[C@H](CO)[C@@H](O)[C@H](O)[C@H]3O)[C@H]12` [Compound 19, Rehmannioside D]: in assay [1], the “Ki (μM, 95% CI)” value is “no activity”. For the same compound, in assay [1] (setting [3]), the “pKi ± SEM” value is recorded as “no activity”. Turning to `O=C1NCCN1CCN1CCC(c2cn(-c3ccc(F)cc3)c3ccc(Cl)cc23)CC1` [Compound 44, Sertindole], the Ki in assay [1] (setting [5]) is 41.7 µM. Turning to `O=c1c(O)cc([C@H]2Oc3cc(O)cc(O)c3C[C@H]2O)cc2c([C@H]3Oc4cc(O)cc(O)c4C[C@H]3O)cc(O)c(O)c12` [Compound 21, Theaflavin], the “Ki (μM, 95% CI)” value in assay [1] is “no activity”. Moreover, the “pKi ± SEM” value in assay [1] (setting [3]) was “no activity”. For `O=c1cc(-c2ccc(O)cc2)oc2c(C3O[C@H](CO)[C@@H](O[C@@H]4O[C@H](CO)[C@@H](O)[C@H](O)[C@H]4O)[C@H](O)[C@H]3O)c(O)cc(O)c12` (stereo partly drawn) [Compound 11, 4”-O-Glucosylvitexin], the “Ki (μM, 95% CI)” value in assay [1] is “no activity”. In addition, the “pKi ± SEM” value in assay [1] (setting [3]) is reported as “no activity”.

Take `COc1ccc(-c2nc(C(=O)NCCc3ccc(Cl)cc3Cl)cc3c2[nH]c2ccccc23)cc1OC` [Compound 35]: the “pKi ± SEM” value in assay [1] (setting [3]) was found to be 4.35 ± 0.09. For the same compound, in assay [1] (read-out: Ki (μM, 95% CI)), the Ki is 44 µM. Consider `CC(C)=CCC[C@](C)(O)[C@H]1CC[C@]2(C)[C@@H]1[C@H](O)C[C@@H]1[C@@]3(C)CC[C@H](O)C(C)(C)[C@@H]3[C@@H](O)C[C@]12C` [Compound 10, (20S)-Protopanaxatriol], for which the “Ki (μM, 95% CI)” value in assay [1] was “no activity”. The “pKi ± SEM” value in assay [1] (setting [3]) was “no activity”. As for `CC(C)=CCCC1(C)C=Cc2c(ccc(C3CC(=O)c4c(O)cc(O)cc4O3)c2O)O1` (stereo not drawn) [Compound 26, Sanggenon N], the “pKi ± SEM” value in assay [1] (setting [3]) turned out to be 4.71 ± 0.05. Moreover, the Ki in assay [1] (read-out: Ki (μM, 95% CI)) amounted to 19 µM. As to `COc1cc2c(cc1OC)[C@@H](Cc1ccc(O)c(Oc3cc4c(cc3OC)CCN(C)[C@@H]4Cc3ccc(O)cc3)c1)N(C)CC2` [Compound 16, Liensinine], the “Ki (μM, 95% CI)” value in assay [1] is on record as “no activity”. Besides, the “pKi ± SEM” value in assay [1] (setting [3]) is reported as “no activity”.

Consider `O=C(/C=C/c1ccc(O)cc1)OC[C@H]1O[C@@H](Oc2c(-c3ccc(O)cc3)oc3cc(O)cc(O)c3c2=O)[C@H](O)[C@@H](O)[C@@H]1O` [Compound 22, Tiliroside], for which, in assay [1] (Ki (μM, 95% CI)), the Ki is 47.2 µM. For the compound `COc1ccc(-n2c(=O)c3ccc(C(=O)NCCc4ccccc4)cc3n(Cc3ccccc3F)c2=O)cc1` [Compound 40], the “Ki (μM, 95% CI)” value in assay [1] is given as “no activity”. In addition, in assay [1] (setting [3]), the “pKi ± SEM” value is listed as “no activity”. On to `COC(=O)C1=C(C)NC(C)=C(C(=O)OCCN(C)Cc2ccccc2)C1c1cccc([N+](=O)[O-])c1` (stereo not drawn) [Compound 5, Nicardipine], for which, in assay [1], the “Ki (μM, 95% CI)” value is “no activity”. In addition, the “pKi ± SEM” value in assay [1] (setting [3]) was “no activity”. Take `CC(C)=CCC/C(C)=C/Cc1cc(C2CC(=O)c3c(O)cc(O)cc3O2)c(O)cc1O` (stereo not drawn) [Compound 24, Kuwanon E]: the Ki in assay [1] (setting [5]) is 30.9 µM. The compound `O=c1[nH]c2ccccc2n1CCN1CCN(c2cccc(C(F)(F)F)c2)CC1` [Compound 2, Flibanserin] showed a Ki in assay [1] (Ki (μM, 95% CI)) of 109 µM. Turning to `COc1cc2c(cc1OC)CN(C(=O)NC(CCSC)C(=O)NC1CCCc3ccccc31)CC2` (racemic) [Compound 39], the “pKi ± SEM” value in assay [1] (setting [3]) came to 4.40 ± 0.07. The Ki in assay [1] (read-out: Ki (μM, 95% CI)) came to 40 µM. Consider `CCCSc1nc(N[C@@H]2C[C@H]2c2ccc(F)c(F)c2)c2nnn([C@@H]3C[C@H](OCCO)[C@@H](O)[C@H]3O)c2n1` [Compound 8, Ticagrelor], for which, in assay [1] (setting [5]), the Ki is 36.3 µM.
